The target of assay [1] is T1, DPAP1 (Plasmodium falciparum, UniProt Q8IIJ9).
T1 construct: native enzyme in live parasites (mature schizonts)
T1 sequence (Q8IIJ9 1-700): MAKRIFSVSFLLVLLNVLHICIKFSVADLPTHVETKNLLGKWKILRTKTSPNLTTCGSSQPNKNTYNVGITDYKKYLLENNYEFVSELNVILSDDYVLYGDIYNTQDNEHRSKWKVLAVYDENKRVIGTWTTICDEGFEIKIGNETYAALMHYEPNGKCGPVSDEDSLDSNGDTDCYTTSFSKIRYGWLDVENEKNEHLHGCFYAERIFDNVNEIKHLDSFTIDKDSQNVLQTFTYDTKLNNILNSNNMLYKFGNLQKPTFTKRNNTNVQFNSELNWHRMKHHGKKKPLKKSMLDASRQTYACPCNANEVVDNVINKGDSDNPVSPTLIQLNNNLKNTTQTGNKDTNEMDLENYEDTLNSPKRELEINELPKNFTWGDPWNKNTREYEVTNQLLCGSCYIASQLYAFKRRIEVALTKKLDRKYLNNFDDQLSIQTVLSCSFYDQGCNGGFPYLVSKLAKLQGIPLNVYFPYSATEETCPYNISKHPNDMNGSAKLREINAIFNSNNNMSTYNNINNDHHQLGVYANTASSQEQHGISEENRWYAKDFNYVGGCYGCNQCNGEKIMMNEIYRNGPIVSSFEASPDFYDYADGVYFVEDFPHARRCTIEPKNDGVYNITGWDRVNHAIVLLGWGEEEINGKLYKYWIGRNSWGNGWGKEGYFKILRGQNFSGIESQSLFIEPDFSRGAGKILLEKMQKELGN
The experiment in a line: cell-based. As to conditions: live parasites, 30 min pretreatment. Set-up: species or system P. falciparum mature schizonts in red blood cells; competitive activity-based probe FY01 labelling in intact parasites, in-gel fluorescence densitometry. As to the method: (§1) Live parasites were treated with different concentrations of inhibitor for 30 min, and the residual level of DPAPs and FPs activities were labelled with FY01 and quantified by densitometry (Fig. 6A). […] Compounds with a P2 Trp or Tyr(NO2) are highly specific for DPAP3 in intact parasites. […] Inhibitors need to cross four membranes to reach DPAP3: the RBC, parasitophorous vacuole and parasite plasma membranes, plus the membrane of the apical organelle where DPAP3 resides 21. (The parasitophorous vacuole is a membrane‐bound structure within which the parasite grows and multiplies isolated from the RBC cytosol.) However, crossing of the parasitophorous vacuole membrane is not likely to be a limiting factor to reach DPAP3 since this membrane is generally permeable to small molecules. It is also likely that the apparent increased potency of Trp‐hPG‐VS in live parasites might be due to its accumulation into the DPAP3 acidic organelle via protonation of its free amine. However, we predict that this lysosomotropic effect likely occurs for all DPAP inhibitors presented here. […] Samples were then run in an SDS/PAGE gel and the in‐gel fluorescence measured using a fluorescence scanner. […] (B) The fluorescence intensity of each of the indicated bands was quantified by densitometry using ImageJ, and the fluorescence values normalized to the DMSO control. […]

The next assay addresses T2, FP1 (Plasmodium falciparum, UniProt P25805).
T2 construct: native falcipain 1 in live parasites (mature schizonts)
The experiment in a line: cell-based. Set-up: species or system P. falciparum mature schizonts in red blood cells; competitive activity-based probe FY01 labelling in intact parasites, in-gel fluorescence densitometry. To be noted: live parasites, 30 min pretreatment. The method, then: as §1

The target in another assay is T3, CatC (bovine) (Bos taurus, UniProt Q3ZCJ8).
T3 construct: gene CTSC; native, purified to homogeneity from bovine spleen
The experiment in a line: biochemical. Set-up: continuous fluorogenic assay, time-dependent inactivation of 0.2 nM CatC, Gly-Arg-AMC 15 uM. The method, then: (§2) Inhibition of DPAP1 was directly measured in parasite lysates diluted 100‐fold in assay buffer using the DPAP1‐selective substrate Pro‐Arg‐AMC 42; 0.2 nM of […] was used for these inhibition studies. Note that because DPAP1 inhibition was directly measured in parasite lysates, inhibitors might have been partially inactivated through the action of aminopeptidases present in the lysates during the course of the assay. Therefore, the potency of the inhibitors might have been underestimated. […] The data were analysed according to the irreversible inhibition model shown in Eqn. 1. First, the progress curves (fluorescent units vs. time) were fitted to Eqn. 5, where F is the measured fluorescence at time t, F 0 the initial fluorescence, V 0 the initial turnover rate, and k obs the observed […] rate constant of inhibition measured at each inhibitor concentration 64.

In assay [2] the target is T4, DPAP3 (Plasmodium falciparum, UniProt Q8I1Y2). The assay can be described thus: biochemical. Set-up: gene PF3D7_0404700; recombinant, baculovirus/SF9 insect cells, purified from culture supernatant by ion exchange, Ni-NTA and size exclusion; active-site titrated; continuous fluorogenic assay, time-dependent inactivation of 0.2 nM recombinant DPAP3, Met-nLeu(o-Bzl)-ACC 2.2 uM. The method, then: The data were analysed according to the irreversible inhibition model shown in Eqn. 1. First, the progress curves (fluorescent units vs. time) were fitted to Eqn. 5, where F is the measured fluorescence at time t, F 0 the initial fluorescence, V 0 the initial turnover rate, and k obs the observed […] rate constant of inhibition measured at each inhibitor concentration 64. […] The inhibition constants are reported in Fig. 3C and Table 2 (See also Fig. S2 for representative fits). Only one inhibitor, containing an amino‐1‐methyl‐benzyl (Amb) group in P2, was not able to inhibit DPAP3 in a time‐dependent manner under our assay conditions (Fig. 3D). This is probably due to the fact that this extended and rigid P2 AA (Fig. 3E) might prevent proper positioning of the [compound left out] group into the active site of DPAP3 to allow covalent modification of the catalytic cysteine. For this compound, a K i value for reversible inhibition was measured.
Target sequence in this assay (Q8I1Y2 entry or part of it): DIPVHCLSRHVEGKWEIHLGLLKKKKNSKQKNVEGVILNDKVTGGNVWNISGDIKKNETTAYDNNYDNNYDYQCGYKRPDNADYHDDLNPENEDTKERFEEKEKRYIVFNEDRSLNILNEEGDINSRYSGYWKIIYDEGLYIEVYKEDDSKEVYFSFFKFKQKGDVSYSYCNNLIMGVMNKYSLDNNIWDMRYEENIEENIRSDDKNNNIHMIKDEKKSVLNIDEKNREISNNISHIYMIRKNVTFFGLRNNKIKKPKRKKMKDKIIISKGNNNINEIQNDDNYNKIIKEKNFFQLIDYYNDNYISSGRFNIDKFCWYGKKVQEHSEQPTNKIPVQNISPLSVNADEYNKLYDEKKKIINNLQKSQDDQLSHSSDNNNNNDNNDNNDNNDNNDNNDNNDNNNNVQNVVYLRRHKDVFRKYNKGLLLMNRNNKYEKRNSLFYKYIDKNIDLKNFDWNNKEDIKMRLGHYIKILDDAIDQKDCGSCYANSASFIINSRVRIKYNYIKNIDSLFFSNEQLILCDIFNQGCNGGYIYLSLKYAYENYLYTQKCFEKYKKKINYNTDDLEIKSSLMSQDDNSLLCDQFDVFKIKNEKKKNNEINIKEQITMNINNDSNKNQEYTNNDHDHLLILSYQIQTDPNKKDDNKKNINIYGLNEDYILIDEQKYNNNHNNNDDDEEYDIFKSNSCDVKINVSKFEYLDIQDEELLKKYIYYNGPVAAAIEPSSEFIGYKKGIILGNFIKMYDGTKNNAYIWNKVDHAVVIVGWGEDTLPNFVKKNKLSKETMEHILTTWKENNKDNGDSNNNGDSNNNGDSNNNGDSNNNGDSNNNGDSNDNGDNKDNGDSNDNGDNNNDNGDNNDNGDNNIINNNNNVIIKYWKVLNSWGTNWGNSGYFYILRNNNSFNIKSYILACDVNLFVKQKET

The target in assay [3] is T5, DPAP1 (Plasmodium falciparum, UniProt Q8IIJ9).
T5 sequence (Q8IIJ9 28-209): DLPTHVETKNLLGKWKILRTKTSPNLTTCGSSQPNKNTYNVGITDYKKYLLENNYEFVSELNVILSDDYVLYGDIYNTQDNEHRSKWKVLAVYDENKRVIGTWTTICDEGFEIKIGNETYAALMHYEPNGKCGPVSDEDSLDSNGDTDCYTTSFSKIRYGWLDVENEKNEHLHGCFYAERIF
T5 sequence (Q8IIJ9 370-599): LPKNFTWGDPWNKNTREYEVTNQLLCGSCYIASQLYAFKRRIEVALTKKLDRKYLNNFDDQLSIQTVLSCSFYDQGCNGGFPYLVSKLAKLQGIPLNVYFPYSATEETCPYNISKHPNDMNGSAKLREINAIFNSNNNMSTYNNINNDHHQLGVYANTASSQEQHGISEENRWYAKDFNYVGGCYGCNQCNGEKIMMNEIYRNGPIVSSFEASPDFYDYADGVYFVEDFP
T5 sequence (Q8IIJ9 600-700): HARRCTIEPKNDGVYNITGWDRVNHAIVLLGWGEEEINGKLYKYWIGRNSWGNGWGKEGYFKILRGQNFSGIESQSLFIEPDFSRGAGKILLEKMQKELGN
The assay can be described thus: biochemical. Set-up: species or system P. falciparum parasite lysate; continuous fluorogenic assay, time-dependent inactivation of DPAP1 in diluted parasite lysate, Pro-Arg-AMC 20 uM. The method, then:
as §2

Assay [4] concerns the target T4, DPAP3. The assay can be described thus: cell-based. Set-up: native enzyme in live parasites (mature schizonts); species or system P. falciparum mature schizonts in red blood cells; competitive activity-based probe FY01 labelling in intact parasites, in-gel fluorescence densitometry. As to conditions: live parasites, 30 min pretreatment. As to the method:
Live parasites were treated with different concentrations of inhibitor for 30 min, and the residual level of DPAPs and FPs activities were labelled with FY01 and quantified by densitometry (Fig. 6A). […] Compounds with a P2 Trp or Tyr(NO2) are highly specific for DPAP3 in intact parasites. […] Inhibitors need to cross four membranes to reach DPAP3: the RBC, parasitophorous vacuole and parasite plasma membranes, plus the membrane of the apical organelle where DPAP3 resides 21. (The parasitophorous vacuole is a membrane‐bound structure within which the parasite grows and multiplies isolated from the RBC cytosol.) However, crossing of the parasitophorous vacuole membrane is not likely to be a limiting factor to reach DPAP3 since this membrane is generally permeable to small molecules. It is also likely that the apparent increased potency of Trp‐hPG‐VS in live parasites might be due to its accumulation into the DPAP3 acidic organelle via protonation of its free amine. However, we predict that this lysosomotropic effect likely occurs for all DPAP inhibitors presented here.  Figure 6 Selective inhibition of DPAP1 or DPAP3 in live parasites. Intact mature schizonts were pretreated for 30 min with increasing concentrations of inhibitor followed by 1 h treatment with FY01. Samples were then run in an SDS/PAGE gel and the in‐gel fluorescence measured using a fluorescence scanner. (A) Representative gel images obtained for each of the inhibitors. Fluorescent bands corresponding to the different cysteine proteases labelled by the probe are indicated with arrowheads (DPAP3, red; FPs, green; DPAP1, blue). (B) The fluorescence intensity of each of the indicated bands was quantified by densitometry using ImageJ, and the fluorescence values normalized to the DMSO control. […] Three technical replicates were performed; dose responses for a representative replicate are shown.
Target sequence in this assay (Q8I1Y2 entry or part of it): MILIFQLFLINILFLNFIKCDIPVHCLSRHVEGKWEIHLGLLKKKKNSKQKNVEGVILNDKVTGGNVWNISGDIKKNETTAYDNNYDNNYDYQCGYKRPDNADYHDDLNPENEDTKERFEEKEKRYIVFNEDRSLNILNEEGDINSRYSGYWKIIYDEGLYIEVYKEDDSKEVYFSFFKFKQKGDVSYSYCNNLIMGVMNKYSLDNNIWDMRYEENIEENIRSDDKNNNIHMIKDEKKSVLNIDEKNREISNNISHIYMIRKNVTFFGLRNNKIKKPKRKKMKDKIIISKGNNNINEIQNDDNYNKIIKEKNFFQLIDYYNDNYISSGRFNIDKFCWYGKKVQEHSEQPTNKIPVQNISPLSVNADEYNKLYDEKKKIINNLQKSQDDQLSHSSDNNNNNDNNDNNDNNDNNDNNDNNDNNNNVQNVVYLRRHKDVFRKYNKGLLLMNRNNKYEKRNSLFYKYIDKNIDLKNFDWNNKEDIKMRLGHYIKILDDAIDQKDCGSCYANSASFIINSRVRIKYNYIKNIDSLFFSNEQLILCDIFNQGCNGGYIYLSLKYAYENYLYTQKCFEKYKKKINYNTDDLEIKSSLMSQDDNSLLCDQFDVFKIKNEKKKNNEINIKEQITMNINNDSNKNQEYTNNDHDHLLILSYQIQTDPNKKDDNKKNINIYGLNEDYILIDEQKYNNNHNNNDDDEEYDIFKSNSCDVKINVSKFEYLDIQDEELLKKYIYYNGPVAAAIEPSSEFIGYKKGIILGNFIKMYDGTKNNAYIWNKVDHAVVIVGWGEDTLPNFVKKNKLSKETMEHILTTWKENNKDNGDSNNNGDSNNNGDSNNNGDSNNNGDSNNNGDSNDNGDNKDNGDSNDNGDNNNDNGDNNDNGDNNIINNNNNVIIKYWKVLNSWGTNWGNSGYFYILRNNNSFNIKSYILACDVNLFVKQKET

For orientation: IC50 means the point on the concentration scale where inhibition reaches its midpoint.

T3 sequence (Q3ZCJ8 25-134): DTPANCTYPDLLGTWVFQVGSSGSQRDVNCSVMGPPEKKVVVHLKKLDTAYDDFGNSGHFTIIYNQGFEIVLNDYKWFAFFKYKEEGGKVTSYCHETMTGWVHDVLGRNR
T3 sequence (Q3ZCJ8 231-394): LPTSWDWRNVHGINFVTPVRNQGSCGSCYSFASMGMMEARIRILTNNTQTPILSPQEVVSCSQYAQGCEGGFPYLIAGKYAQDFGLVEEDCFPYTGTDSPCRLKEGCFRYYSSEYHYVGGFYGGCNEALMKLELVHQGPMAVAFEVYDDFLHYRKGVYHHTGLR
T3 sequence (Q3ZCJ8 395-463): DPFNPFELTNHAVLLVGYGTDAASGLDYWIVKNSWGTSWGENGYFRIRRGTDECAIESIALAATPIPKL
T2 sequence (P25805 whole entry): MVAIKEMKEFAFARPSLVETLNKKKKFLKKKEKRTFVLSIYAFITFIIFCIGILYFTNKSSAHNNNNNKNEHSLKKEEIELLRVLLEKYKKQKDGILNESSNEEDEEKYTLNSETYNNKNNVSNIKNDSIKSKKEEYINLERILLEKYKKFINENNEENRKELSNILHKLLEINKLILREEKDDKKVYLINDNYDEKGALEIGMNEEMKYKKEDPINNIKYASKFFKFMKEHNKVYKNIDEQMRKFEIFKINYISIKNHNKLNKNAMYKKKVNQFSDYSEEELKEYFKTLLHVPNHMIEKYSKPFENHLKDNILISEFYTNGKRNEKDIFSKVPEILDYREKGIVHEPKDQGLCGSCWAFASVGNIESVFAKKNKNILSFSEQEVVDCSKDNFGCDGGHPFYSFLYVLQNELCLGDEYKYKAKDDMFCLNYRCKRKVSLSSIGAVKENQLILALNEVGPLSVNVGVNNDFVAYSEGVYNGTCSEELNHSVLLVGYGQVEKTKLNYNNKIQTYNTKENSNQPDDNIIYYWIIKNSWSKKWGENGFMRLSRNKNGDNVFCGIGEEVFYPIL

For `O=C(N[C@H](/C=C/S(=O)(=O)c1ccccc1)CCc1ccccc1)[C@@H]1CCCCN1` [hPro‐hPhe‐VS], the IC50 on DPAP1 [1] was found to be 80 ± 7 nM; at FP1, 350 ± 80 nM; on DPAP3 [4], 160 ± 50 nM. Besides, the values for the kinact on CatC (bovine) (read-out: CatC / k inact ·10^3), at DPAP3 [2] (read-out: DPAP3 / k inact ·10^3) and at DPAP1 [3] (read-out: DPAP1 / k inact ·10^3) were 0.00167 ± 8e-05 s⁻¹, 0.0021 ± 0.0001 s⁻¹ and 0.0048 ± 0.0006 s⁻¹, respectively. Further, the results for the kinact/KI at CatC (bovine) (read-out: CatC / k inact/K i ·10^−3 (M ^−1·s^−1)), at DPAP3 [2] (read-out: DPAP3 / k inact/K i ·10^−3 (M ^−1·s^−1)) and on DPAP1 [3] (read-out: DPAP1 / k inact/K i ·10^−3 (M ^−1·s^−1)) were 76000 ± 800 M⁻¹ s⁻¹, 69000 ± 13000 M⁻¹ s⁻¹ and 1.23e+06 ± 400000 M⁻¹ s⁻¹, respectively.
